Test results from ChEMBL document CHEMBL5113461, “Improving the solubility and antileukemia activity of Wnt/β-catenin signaling inhibitors by disrupting molecular planarity” (Bioorg Med Chem, 2022).
≈ marks a conversion by molar mass, not a printed value.

How the values were obtained:
[1] = Aqueous solubility of the compound in PBS buffer at pH 7.4 incubated for 6 hrs by HPLC analysis; type: physicochemical; details: pH 7.4, 6 h
K562 [2] = experiment: Downregulation of beta-catenin levels in human K562 cells by Western blot analysis; type: functional, cell-based; details: dose 0.1-10 µM, DDE = dose-dependent effect
K562 [3] = experiment: Upregulation of axin-1 levels in human K562 cells by Western blot analysis; type: functional, cell-based; details: dose 0.1-10 µM, DDE = dose-dependent effect
K562 [4] = experiment: cells; details: Homo sapiens, K562, 48 h

solubility [1] [µg/mL] | IC50 (K562 [4]) [µM] | SMILES | Activity (K562 [2]) | Activity (K562 [3])
5.9 (≈ 14 µM) |  | Cc1nn(-c2ccccc2Br)c(C)c1C(=O)Nc1ccc2ccccc2n1 |  | 
5.2 (≈ 14 µM) |  | CCc1ccccc1-n1nc(C)c(C(=O)Nc2ccc3ccccc3n2)c1C | Dde | Dde
6.7 (≈ 18.8 µM) |  | Cc1ccccc1-n1nc(C)c(C(=O)Nc2ccc3ccccc3n2)c1C |  | 

The remaining lines, values behind:

SMILES | solubility [1] [µg/mL] | IC50 (K562 [4]) [µM] | Activity (K562 [2]) | Activity (K562 [3])
Cc1c(C(=O)Nc2ccc3ccccc3n2)cnn1-c1ccccc1Br | 0.05 (≈ 0.123 µM) |  |  | 
Cc1ccccc1-n1nnc(C(=O)Nc2ccc3ccccc3n2)c1C | 0.11 (≈ 0.32 µM) | > 50 |  | 
